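How tested: cells in 96-well plates exposed to compound for 48 hours at five concentrations. Here, GI50 denotes the concentration required for 50% inhibition of growth. TGI: concentration producing complete growth inhibition.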
What was measured:
Experiment in all cases: NCI-60 cell line screen, 48 h; in the data active means GI50 below about 0.43 µM; inactive means the rest
HT29 colon = system: HT29 colon
RXF 393 renal = system: RXF 393 renal
SK-MEL-2 melanoma = system: SK-MEL-2 melanoma
PC-3 prostate = system: PC-3 prostate
M14 melanoma = system: M14 melanoma
HCT-116 colon = system: HCT-116 colon
SF-268 CNS = system: SF-268 CNS
A498 renal = system: A498 renal
MDA-MB-231 breast = system: MDA-MB-231 breast
HCC-2998 colon = system: HCC-2998 colon

CCSCC(N)C(=O)O (stereo unspecified)
> 100 µM: TGI (HT29 colon) | TGI (RXF 393 renal) | TGI (SK-MEL-2 melanoma) | TGI (PC-3 prostate) | TGI (M14 melanoma) | TGI (HCT-116 colon) | TGI (SF-268 CNS) | TGI (A498 renal) | TGI (MDA-MB-231 breast)

CC1C[C@H](OC(N)=O)C(C)CC1=O (stereo partly specified)
> 100 µM: TGI (HT29 colon) | TGI (RXF 393 renal) | TGI (HCC-2998 colon) | TGI (SK-MEL-2 melanoma) | TGI (M14 melanoma) | TGI (HCT-116 colon) | TGI (SF-268 CNS) | TGI (A498 renal)

CC(C)c1ccccc1NC(=O)C(=O)Cc1nc2ccccc2s1
> 100 µM: TGI (HT29 colon) | TGI (RXF 393 renal) | TGI (HCC-2998 colon) | TGI (SK-MEL-2 melanoma) | TGI (M14 melanoma) | TGI (HCT-116 colon) | TGI (SF-268 CNS) | TGI (A498 renal)

Cc1ccc(-c2nc(SCC(=O)O)n[nH]2)cc1
> 100 µM: TGI (HT29 colon) | TGI (HCC-2998 colon) | TGI (SK-MEL-2 melanoma) | TGI (M14 melanoma) | TGI (HCT-116 colon) | TGI (SF-268 CNS) | TGI (A498 renal)

Cc1ccc(NC(=O)NC(=O)c2ccc([N+](=O)[O-])cc2[N+](=O)[O-])cc1Oc1ncc(Cl)cn1
4.78 µM: TGI (HCT-116 colon)
11.3 µM: TGI (M14 melanoma)
24.2 µM: TGI (MDA-MB-231 breast)
0.619 µM: TGI (HCC-2998 colon)
22.2 µM: TGI (A498 renal)
2.57 µM: TGI (HT29 colon)
21.8 µM: TGI (SF-268 CNS)
12.2 µM: TGI (PC-3 prostate)

CCOC(=O)C(=O)Nc1c(F)cc(F)cc1Br
> 100 µM: TGI (HT29 colon) | TGI (RXF 393 renal) | TGI (HCC-2998 colon) | TGI (SK-MEL-2 melanoma) | TGI (M14 melanoma) | TGI (HCT-116 colon) | TGI (SF-268 CNS) | TGI (A498 renal)

O=C(OCc1ccccc1)N1CCN(/[N+]([O-])=N/Oc2ccc([N+](=O)[O-])cc2[N+](=O)[O-])CC1
56.5 µM: TGI (RXF 393 renal)
9.48 µM: TGI (MDA-MB-231 breast)
28.5 µM: TGI (PC-3 prostate)
inactive: GI50 (HT29 colon) 10.4 µM | GI50 (RXF 393 renal) 29.2 µM | GI50 (SK-MEL-2 melanoma) 19.1 µM | GI50 (PC-3 prostate) 14.2 µM | GI50 (HCT-116 colon) 2.15 µM | GI50 (SF-268 CNS) 6.28 µM | GI50 (MDA-MB-231 breast) 3.58 µM
> 100 µM: TGI (HT29 colon)
23.9 µM: TGI (SF-268 CNS)
7.55 µM: TGI (HCT-116 colon)
57 µM: TGI (SK-MEL-2 melanoma)

COc1ccc2oc3c4c2c1CCC4CCC3=O (stereo unspecified)
> 100 µM: TGI (HT29 colon) | TGI (RXF 393 renal) | TGI (HCC-2998 colon) | TGI (SK-MEL-2 melanoma) | TGI (M14 melanoma) | TGI (SF-268 CNS) | TGI (A498 renal)

COc1ccc(C(O)/C(=N\NC(N)=S)c2nc3ccc([N+](=O)[O-])cc3[nH]c2=O)cc1OC (stereo unspecified)
> 100 µM: TGI (HT29 colon) | TGI (RXF 393 renal) | TGI (HCC-2998 colon) | TGI (SK-MEL-2 melanoma) | TGI (M14 melanoma) | TGI (SF-268 CNS) | TGI (A498 renal)

CCOC(=O)C(=O)Nc1ccc(C)cc1C
> 100 µM: TGI (HT29 colon) | TGI (RXF 393 renal) | TGI (HCC-2998 colon) | TGI (SK-MEL-2 melanoma) | TGI (M14 melanoma) | TGI (HCT-116 colon) | TGI (SF-268 CNS)

COC(=O)c1ccc2c(c1)nc(-c1cc3ccccc3[nH]c1=O)n2-c1cc(C(C)(C)C)[nH]n1
inactive: GI50 (HT29 colon) 1.34 µM | GI50 (RXF 393 renal) 2.83 µM | GI50 (SK-MEL-2 melanoma) 2.82 µM | GI50 (PC-3 prostate) 2.27 µM | GI50 (HCT-116 colon) 1.74 µM | GI50 (SF-268 CNS) 2.24 µM | GI50 (A498 renal) 3.99 µM | GI50 (MDA-MB-231 breast) 4.13 µM
> 95.9 µM: TGI (SF-268 CNS)
> 87.7 µM: TGI (A498 renal)
> 29.8 µM: TGI (RXF 393 renal)
> 100 µM: TGI (HT29 colon) | TGI (SK-MEL-2 melanoma) | TGI (PC-3 prostate) | TGI (HCT-116 colon) | TGI (MDA-MB-231 breast)

COc1ccc(C(=O)c2ccc(OC)c(OC)c2OC)cc1
3.33 µM: TGI (SK-MEL-2 melanoma)
active: GI50 (SK-MEL-2 melanoma) 0.402 µM
> 100 µM: TGI (HCC-2998 colon) | TGI (PC-3 prostate) | TGI (HCT-116 colon) | TGI (SF-268 CNS) | TGI (MDA-MB-231 breast)
33.5 µM: TGI (HT29 colon)
inactive: GI50 (HT29 colon) 0.465 µM | GI50 (HCC-2998 colon) 2.76 µM | GI50 (PC-3 prostate) 3.21 µM | GI50 (M14 melanoma) 1.32 µM | GI50 (HCT-116 colon) 2.19 µM | GI50 (SF-268 CNS) 5.2 µM | GI50 (A498 renal) 1.08 µM | GI50 (MDA-MB-231 breast) 3.63 µM
9.39 µM: TGI (A498 renal)
71.2 µM: TGI (M14 melanoma)

O=C1OCC(c2cccs2)=C1Cl
98.2 µM: TGI (MDA-MB-231 breast)
inactive: GI50 (HT29 colon) 62.4 µM | GI50 (RXF 393 renal) 53 µM | GI50 (SK-MEL-2 melanoma) > 100 µM | GI50 (PC-3 prostate) > 100 µM | GI50 (M14 melanoma) > 100 µM | GI50 (HCT-116 colon) > 100 µM | GI50 (SF-268 CNS) > 100 µM | GI50 (A498 renal) 17.6 µM | GI50 (MDA-MB-231 breast) 24.7 µM
63.9 µM: TGI (A498 renal)
> 100 µM: TGI (HT29 colon) | TGI (RXF 393 renal) | TGI (SK-MEL-2 melanoma) | TGI (PC-3 prostate) | TGI (M14 melanoma) | TGI (HCT-116 colon) | TGI (SF-268 CNS)

CCC[CH2][Sn]([CH2]CCC)([O]C(=O)c1cc(F)cc(F)c1)[O]C(=O)c1cc(F)cc(F)c1
1.33 µM: TGI (RXF 393 renal)
3.06 µM: TGI (HT29 colon)
2.83 µM: TGI (A498 renal)
active: GI50 (RXF 393 renal) 0.349 µM | GI50 (HCC-2998 colon) 0.242 µM | GI50 (SK-MEL-2 melanoma) 0.298 µM
inactive: GI50 (HT29 colon) 1.65 µM | GI50 (M14 melanoma) 1.36 µM | GI50 (HCT-116 colon) 1.27 µM | GI50 (SF-268 CNS) 1.09 µM | GI50 (A498 renal) 1.49 µM
2.54 µM: TGI (HCT-116 colon)
2.67 µM: TGI (M14 melanoma)
1.24 µM: TGI (SK-MEL-2 melanoma)
2 µM: TGI (HCC-2998 colon)
2.34 µM: TGI (SF-268 CNS)

O=S(O)CCCCCSSCCCCSSCCCCCS(=O)O
> 100 µM: TGI (HT29 colon) | TGI (RXF 393 renal) | TGI (SK-MEL-2 melanoma) | TGI (M14 melanoma) | TGI (SF-268 CNS) | TGI (A498 renal)

COc1ccc(/C=C2\CCCCC2=O)cc1
> 100 µM: TGI (HT29 colon) | TGI (M14 melanoma) | TGI (HCT-116 colon) | TGI (SF-268 CNS) | TGI (A498 renal)

CCOC(=O)c1sc2nc3sc(N=Nc4ccc(Cl)cc4)c(O)n3c(=S)c2c1C
90.4 µM: TGI (RXF 393 renal)
> 100 µM: TGI (HT29 colon) | TGI (SK-MEL-2 melanoma) | TGI (PC-3 prostate) | TGI (M14 melanoma) | TGI (HCT-116 colon)
inactive: GI50 (HT29 colon) 36.9 µM | GI50 (RXF 393 renal) 20.6 µM | GI50 (SK-MEL-2 melanoma) > 100 µM | GI50 (PC-3 prostate) 21.3 µM | GI50 (M14 melanoma) 33.2 µM | GI50 (HCT-116 colon) 33.8 µM | GI50 (SF-268 CNS) 19.7 µM | GI50 (A498 renal) 24.1 µM
62.5 µM: TGI (A498 renal)
82 µM: TGI (SF-268 CNS)

CCn1cc(/C=C/C(C)c2cn(CC)c(=O)[nH]c2=O)c(=O)[nH]c1=O (stereo unspecified)
> 100 µM: TGI (HT29 colon) | TGI (RXF 393 renal) | TGI (HCC-2998 colon) | TGI (SK-MEL-2 melanoma) | TGI (M14 melanoma) | TGI (SF-268 CNS)

NC(=O)C1=NNc2ccccc2C(=O)N1c1ccccc1
> 100 µM: TGI (HT29 colon) | TGI (RXF 393 renal) | TGI (SK-MEL-2 melanoma) | TGI (PC-3 prostate) | TGI (M14 melanoma) | TGI (HCT-116 colon) | TGI (SF-268 CNS) | TGI (A498 renal) | TGI (MDA-MB-231 breast)

Brc1ccc(-c2nnc(-c3nn(-c4ccccc4)c4nc5ccccc5nc34)o2)cc1
> 100 µM: TGI (HT29 colon) | TGI (RXF 393 renal) | TGI (HCC-2998 colon) | TGI (SK-MEL-2 melanoma) | TGI (M14 melanoma) | TGI (HCT-116 colon) | TGI (SF-268 CNS)

COc1cc(/C=C/c2cc(/C=C/c3ccc(O)c(OC)c3)n(-c3c(C)cccc3C)c(=O)n2)ccc1O
11.5 µM: TGI (SF-268 CNS)
4.71 µM: TGI (HT29 colon)
6.08 µM: TGI (A498 renal)
3.38 µM: TGI (HCT-116 colon)
inactive: GI50 (HT29 colon) 2.13 µM | GI50 (HCC-2998 colon) 2.28 µM | GI50 (SK-MEL-2 melanoma) 0.436 µM | GI50 (PC-3 prostate) 1.17 µM | GI50 (HCT-116 colon) 0.695 µM | GI50 (SF-268 CNS) 1.19 µM | GI50 (A498 renal) 2.4 µM | GI50 (MDA-MB-231 breast) 1.76 µM
9.95 µM: TGI (MDA-MB-231 breast)
1.73 µM: TGI (SK-MEL-2 melanoma)
9.15 µM: TGI (HCC-2998 colon)
6.52 µM: TGI (PC-3 prostate)
